Data taken from the NIST ThermoML archive (doi:10.1016/j.jct.2004.12.014).

Experiments:
[1] = xn = mol fraction of the nth substance listed; conditions: 318.15 K, 101 kPa, Liquid
[2] = excess molar enthalpy (molar enthalpy of mixing); xn = mol fraction of the nth substance listed; conditions: 318.15 K, 101 kPa, Liquid
[3] = 318.15 K; 101.33 kPa; Liquid
[4] = refractive index (Na D-line) (dimensionless); conditions: 318.15 K; 101.33 kPa; Liquid; Standard Abbe refractometry

CCCCOC(=O)CC [butyl propanoate] + CCCCCCCCC
Conditions | excess molar enthalpy [kcal/mol] | excess molar volume [m3/mol]
[1], x1 = 0.0333 | – | 9.9e-08
[1], x1 = 0.0721 | – | 1.95e-07
[1], x1 = 0.139 | – | 3.26e-07
[1], x1 = 0.2059 | – | 4.35e-07
[1], x1 = 0.2687 | – | 5.18e-07
[1], x1 = 0.3345 | – | 5.69e-07
[1], x1 = 0.3947 | – | 5.89e-07
[1], x1 = 0.4555 | – | 6.09e-07
[1], x1 = 0.5165 | – | 6.08e-07
[1], x1 = 0.5747 | – | 5.79e-07
[1], x1 = 0.6293 | – | 5.5e-07
[1], x1 = 0.6868 | – | 5.08e-07
[1], x1 = 0.7408 | – | 4.43e-07
[1], x1 = 0.7931 | – | 3.73e-07
[1], x1 = 0.8466 | – | 3.03e-07
[1], x1 = 0.8978 | – | 2.16e-07
[1], x1 = 0.9473 | – | 1.21e-07
[2], x1 = 0.0694 | 0.0639 | –
[2], x1 = 0.1491 | 0.116 | –
[2], x1 = 0.2269 | 0.159 | –
[2], x1 = 0.302 | 0.189 | –
[2], x1 = 0.3723 | 0.207 | –
[2], x1 = 0.4365 | 0.215 | –
[2], x1 = 0.4936 | 0.215 | –
[2], x1 = 0.5364 | 0.213 | –
[2], x1 = 0.5441 | 0.211 | –
[2], x1 = 0.5775 | 0.21 | –
[2], x1 = 0.5891 | 0.207 | –
[2], x1 = 0.6309 | 0.2 | –
[2], x1 = 0.6873 | 0.184 | –
[2], x1 = 0.7512 | 0.159 | –
[2], x1 = 0.8149 | 0.128 | –
[2], x1 = 0.8787 | 0.089 | –
[2], x1 = 0.9424 | 0.0465 | –

CCCCCOC(=O)CC [pentyl propanoate] + CCCCCCCCC
Conditions | excess molar enthalpy [kcal/mol] | excess molar volume [m3/mol]
[1], x1 = 0.0661 | – | 1.34e-07
[1], x1 = 0.1312 | – | 2.47e-07
[1], x1 = 0.1902 | – | 3.19e-07
[1], x1 = 0.2517 | – | 3.88e-07
[1], x1 = 0.3122 | – | 4.31e-07
[1], x1 = 0.3722 | – | 4.6e-07
[1], x1 = 0.4344 | – | 4.77e-07
[1], x1 = 0.4911 | – | 4.73e-07
[1], x1 = 0.5498 | – | 4.62e-07
[1], x1 = 0.6072 | – | 4.37e-07
[1], x1 = 0.6646 | – | 3.9e-07
[1], x1 = 0.7225 | – | 3.49e-07
[1], x1 = 0.778 | – | 2.91e-07
[1], x1 = 0.8335 | – | 2.41e-07
[1], x1 = 0.8887 | – | 1.69e-07
[1], x1 = 0.9434 | – | 1.01e-07
[2], x1 = 0.0584 | 0.0448 | –
[2], x1 = 0.1266 | 0.0882 | –
[2], x1 = 0.1948 | 0.124 | –
[2], x1 = 0.2641 | 0.151 | –
[2], x1 = 0.329 | 0.168 | –
[2], x1 = 0.3907 | 0.178 | –
[2], x1 = 0.4467 | 0.183 | –
[2], x1 = 0.4973 | 0.184 | –
[2], x1 = 0.5431 | 0.181 | –
[2], x1 = 0.576 | 0.176 | –
[2], x1 = 0.5969 | 0.173 | –
[2], x1 = 0.6505 | 0.161 | –
[2], x1 = 0.7085 | 0.145 | –
[2], x1 = 0.7683 | 0.124 | –
[2], x1 = 0.8297 | 0.0982 | –
[2], x1 = 0.8907 | 0.067 | –
[2], x1 = 0.9492 | 0.0339 | –

CCCCOC(=O)CC [butyl propanoate]
Conditions | mass density [kg/m3] | refractive index
[3] | 851.33 | –
[4] | – | 1.3895

CCCCCCCCCCCCC [tridecane] + CCOC(=O)CC
Conditions | excess molar enthalpy [kcal/mol] | excess molar volume [m3/mol]
[1], x2 = 0.0553 | – | 2.18e-07
[1], x2 = 0.1314 | – | 4.88e-07
[1], x2 = 0.2286 | – | 7.67e-07
[1], x2 = 0.3064 | – | 9.41e-07
[1], x2 = 0.3982 | – | 1.105e-06
[1], x2 = 0.4702 | – | 1.178e-06
[1], x2 = 0.5353 | – | 1.203e-06
[1], x2 = 0.6003 | – | 1.177e-06
[1], x2 = 0.6545 | – | 1.134e-06
[1], x2 = 0.7057 | – | 1.072e-06
[1], x2 = 0.7518 | – | 9.93e-07
[1], x2 = 0.7964 | – | 8.81e-07
[1], x2 = 0.8358 | – | 7.55e-07
[1], x2 = 0.8729 | – | 6.38e-07
[1], x2 = 0.9066 | – | 4.97e-07
[1], x2 = 0.9396 | – | 3.51e-07
[1], x2 = 0.9702 | – | 2.08e-07
[2], x2 = 0.0944 | 0.112 | –
[2], x2 = 0.189 | 0.201 | –
[2], x2 = 0.282 | 0.274 | –
[2], x2 = 0.366 | 0.326 | –
[2], x2 = 0.4354 | 0.355 | –
[2], x2 = 0.4882 | 0.367 | –
[2], x2 = 0.5339 | 0.372 | –
[2], x2 = 0.5841 | 0.371 | –
[2], x2 = 0.6332 | 0.361 | –
[2], x2 = 0.6564 | 0.351 | –
[2], x2 = 0.6775 | 0.343 | –
[2], x2 = 0.6925 | 0.335 | –
[2], x2 = 0.7364 | 0.306 | –
[2], x2 = 0.7802 | 0.271 | –
[2], x2 = 0.8254 | 0.228 | –
[2], x2 = 0.8702 | 0.181 | –
[2], x2 = 0.9163 | 0.127 | –
[2], x2 = 0.9613 | 0.0636 | –

CCCOC(=O)CC [propyl propanoate]
Conditions | mass density [kg/m3] | refractive index
[3] | 854.57 | –
[4] | – | 1.3809
